ChEMBL document CHEMBL2417453, “Anti-inflammatory asterosaponins from the starfish Astropecten monacanthus” (J Nat Prod, 2013)

Assays:
Type in all cases: functional, cell-based
Details in all cases: C57BL/6, BMDC
[1] = Antiinflammatory activity in C57BL/6 mouse BMDC cells assessed as inhibition of LPS-induced IL-6 production preincubated for 1 hr prior to LPS-stimulation measured after 18 hrs by ELISA
[2] = Antiinflammatory activity in C57BL/6 mouse BMDC cells assessed as inhibition of LPS-induced TNFalpha production preincubated for 1 hr prior to LPS-stimulation measured after 18 hrs by ELISA
[3] = Antiinflammatory activity in C57BL/6 mouse BMDC cells assessed as inhibition of LPS-induced IL-12 p40 production preincubated for 1 hr prior to LPS-stimulation measured after 18 hrs by ELISA

IC50 [1] [µM] | IC50 [2] [µM] | IC50 [3] [µM] | Structure (SMILES)
3.17 | > 50 | > 50 | C/C(=C\C(=O)CC(C)C)[C@H]1CC[C@H]2[C@@H]3C[C@H](O[C@@H]4O[C@H](C)[C@@H](O)[C@H](O[C@@H]5OC[C@@H](O[C@@H]6O[C@H](CO)[C@H](O)[C@H](O)[C@H]6O[C@@H]6O[C@H](C)[C@H](O)[C@H](O[C@@H]7O[C@@H](CO)[C@H](O)[C@H]7O)[C@H]6O)[C@H](O)[C@H]5O[C@@H]5O[C@H](C)[C@@H](O)[C@H](O)[C@H]5O)[C@H]4O)[C@H]4C[C@@H](OS(=O)(=O)O)CC[C@]4(C)C3=CC[C@]12C
> 50 | > 50 | > 50 | CC(C)C[C@H](O)C[C@](C)(O)[C@H]1CC[C@H]2[C@@H]3C[C@H](O[C@@H]4O[C@H](C)[C@@H](O)[C@H](O[C@@H]5OC[C@@H](O[C@@H]6O[C@H](CO)[C@H](O)[C@H](O)[C@H]6O[C@@H]6O[C@H](C)[C@H](O)[C@H](O[C@@H]7O[C@@H](CO)[C@H](O)[C@H]7O)[C@H]6O)[C@H](O)[C@H]5O[C@@H]5O[C@H](C)[C@@H](O)[C@H](O)[C@H]5O)[C@H]4O)[C@H]4C[C@@H](OS(=O)(=O)O)CC[C@]4(C)C3=CC[C@@]21C
30.5 | > 50 | > 50 | CC(=O)[C@H]1CC[C@H]2[C@@H]3C[C@H](O[C@@H]4O[C@H](C)[C@@H](O)[C@H](O[C@@H]5OC[C@@H](O[C@@H]6O[C@H](CO)[C@H](O)[C@H](O)[C@H]6O[C@@H]6O[C@H](C)[C@H](O)[C@H](O[C@@H]7O[C@@H](CO)[C@H](O)[C@H]7O)[C@H]6O)[C@H](O)[C@H]5O[C@@H]5O[C@H](C)[C@@H](O)[C@H](O)[C@H]5O)[C@H]4O)[C@H]4C[C@@H](OS(=O)(=O)O)CC[C@]4(C)C3=CC[C@]12C
3.51 | 1.21 | 0.6 | CC(=O)CC(=O)C[C@@](C)(O)[C@H]1CC[C@H]2[C@@H]3C[C@H](O[C@@H]4O[C@H](CO)[C@@H](O)[C@H](O[C@@H]5O[C@H](C)[C@@H](O[C@@H]6O[C@H](C)[C@H](O)[C@H](O)[C@H]6O[C@@H]6O[C@H](C)[C@H](O)[C@H](O)[C@H]6O)[C@H](O)[C@H]5O[C@@H]5O[C@H](C)[C@@H](O)[C@H](O)[C@H]5O)[C@H]4O)[C@H]4C[C@@H](OS(=O)(=O)O)CC[C@]4(C)C3=CC[C@@]21C
4.37 | > 50 | > 50 | CC(C)=CC(=O)C[C@@H](C)[C@H]1CC[C@H]2[C@@H]3C[C@H](O[C@@H]4O[C@H](CO)[C@@H](O)[C@H](O[C@@H]5O[C@H](C)[C@@H](O[C@@H]6O[C@H](C)[C@H](O)[C@H](O)[C@H]6O[C@@H]6O[C@H](C)[C@H](O)[C@H](O)[C@H]6O)[C@H](O)[C@H]5O[C@@H]5O[C@H](C)[C@@H](O)[C@H](O)[C@H]5O)[C@H]4O)[C@H]4C[C@@H](OS(=O)(=O)O)CC[C@]4(C)C3=CC[C@]12C
> 50 | > 50 | > 50 | CC(C)CC(=O)C[C@](C)(O)[C@H]1CC[C@H]2[C@@H]3C[C@H](O[C@@H]4O[C@H](C)[C@@H](O)[C@H](O[C@@H]5OC[C@@H](O[C@@H]6O[C@H](CO)[C@H](O)[C@H](O)[C@H]6O[C@@H]6O[C@H](C)[C@H](O)[C@H](O[C@@H]7O[C@@H](CO)[C@H](O)[C@H]7O)[C@H]6O)[C@H](O)[C@H]5O[C@@H]5O[C@H](C)[C@@H](O)[C@H](O)[C@H]5O)[C@H]4O)[C@H]4C[C@@H](OS(=O)(=O)O)CC[C@]4(C)C3=CC[C@@]21C [PSILASTEROSIDE]

Structure (SMILES) | IC50 [1] [µM] | IC50 [2] [µM] | IC50 [3] [µM]
C[S+]([O-])c1ccc(-c2nc(-c3ccc(F)cc3)c(-c3ccncc3)[nH]2)cc1 (stereo unspecified) [SB-203580] | 3.5 | 7.5 | 5
